According to patent US20100129434A1, “COMPOSITIONS AND METHODS FOR THE TREATMENT OF MUCORMYCOSIS AND OTHER FUNGAL DISEASES” (priority 2006, published 2010):
≈ marks a conversion by molar mass, not a printed value. Read-outs that look alike come from different tables or passages of the source.

Tested on: R. oryzae
Test: Deferasirox susceptibility testing (MIC/MFC), R. oryzae isolates
Format: cell-based, Rhizopus oryzae
Settings: Rhizopus arrhizus; for MIC90: R. oryzae MIC90/MFC90
Procedure: Minimum inhibitory concentration (MIC) and minimum fungicidal concentration (MFC) were determined for deferasirox by the method of Espinel-Ingroff using R. oryzae spores starved for iron (Espinel-Ingroff, (2001), supra). Cidality was defined as a <4-fold difference between MIC and MFC.
We next determined the deferasirox susceptibilities of multiple clinical isolates of Mucorales (Table 3). The MIC9OS of deferasirox against Mucor, non-oryzae Rhizopus spp., and R. oryzae were 3.12 to 6.25 μg/ml. MFCs were similar to MICs, and deferasirox was cidal for 28/29 (97%) of isolates. Of note, slight growth was seen within the first twelve hours even at extremely high concentrations of deferasirox. […] Furthermore, the MICs and MFCs of deferasirox against these isolates were well below clinically achievable peak (˜38 μg/ml) and trough serum levels (˜17 μg/ml) of the drug at steady state when administered at the FDA-approved starting dose (20 mg/kg/d).

[1] = NRRL6059, 24 h, R. oryzae type I NRRL 6059, 24 h
[2] = NRRL6059, 48 h, R. oryzae type I NRRL 6059, 48 h
[3] = NRRL21409, 48 h, R. oryzae type I NRRL21409, 48 h

Compound `O=C(O)c1ccc(-n2nc(-c3ccccc3O)nc2-c2ccccc2O)cc1` [Deferasirox, 4-[3,5-Bis(2-hydroxyphenyl)-1H-1,2,4-triazol-1-yl]-benzoic acid] has an MFC (48 h, R. oryzae 99-892, 48 h, read-out: MFC) of 1.56 µg/mL (≈ 4.18 µM), an MIC (48 h, R. oryzae 99-892, 48 h, read-out: MIC) of 1.56 µg/mL (≈ 4.18 µM) and an MFC (48 h, R. oryzae 729-02, 48 h, read-out: MFC) of 6.25 µg/mL (≈ 16.7 µM). It also gave an MIC (48 h, R. oryzae 729-02, 48 h, read-out: MIC) of 6.25 µg/mL (≈ 16.7 µM), an MFC (48 h, R. oryzae HUMC 02, 48 h, read-out: MFC) of 1.56 µg/mL (≈ 4.18 µM) and an MIC (48 h, R. oryzae HUMC 02, 48 h, read-out: MIC) of 1.56 µg/mL (≈ 4.18 µM). For the same compound, the MFC (48 h, R. oryzae pyr17 pyrG−/−, 48 h, read-out: MFC) was 0.78 µg/mL (≈ 2.09 µM), the MIC (48 h, R. oryzae pyr17 pyrG−/−, 48 h, read-out: MIC) was 0.78 µg/mL (≈ 2.09 µM) and the MFC (48 h, R. orzae type II 10206, 48 h, read-out: MFC) was 3.12 µg/mL (≈ 8.36 µM). The MIC (48 h, R. orzae type II 10206, 48 h, read-out: MIC) was 3.12 µg/mL (≈ 8.36 µM), the MFC [1] was 6.25 µg/mL (≈ 16.7 µM) and the MIC [1] was 6.15 µg/mL (≈ 16.5 µM). It also gave an MFC [2] of 6.25 µg/mL (≈ 16.7 µM), an MIC [2] of 1.56 µg/mL (≈ 4.18 µM) and an MFC (NRRL10206, 24 h, R. oryzae type I NRRL 10206, 24 h, read-out: MFC) of 3.12 µg/mL (≈ 8.36 µM). For the same compound, the MIC (NRRL10206, 24 h, R. oryzae type I NRRL 10206, 24 h, read-out: MIC) was 3.12 µg/mL (≈ 8.36 µM), the MFC (NRRL10206, 48 h, R. oryzae type I NRRL 10206, 48 h, read-out: MFC) was 3.12 µg/mL (≈ 8.36 µM) and the MIC (NRRL10206, 48 h, R. oryzae type I NRRL 10206, 48 h, read-out: MIC) was 3.12 µg/mL (≈ 8.36 µM). It also gave an MFC (NRRL11823, 24 h, R. oryzae type I NRRL11823, 24 h, read-out: MFC) of 3.12 µg/mL (≈ 8.36 µM), an MIC (NRRL11823, 24 h, R. oryzae type I NRRL11823, 24 h, read-out: MIC) of 3.12 µg/mL (≈ 8.36 µM) and an MFC (NRRL11823, 48 h, R. oryzae type I NRRL11823, 48 h, read-out: MFC) of 6.25 µg/mL (≈ 16.7 µM). The MIC (NRRL11823, 48 h, R. oryzae type I NRRL11823, 48 h, read-out: MIC) was 6.25 µg/mL (≈ 16.7 µM), the MFC (NRRL13142, 24 h, R. oryzae type I NRRL13142, 24 h, read-out: MFC) was 6.25 µg/mL (≈ 16.7 µM) and the MIC (NRRL13142, 24 h, R. oryzae type I NRRL13142, 24 h, read-out: MIC) was 6.25 µg/mL (≈ 16.7 µM). It also gave an MFC (NRRL13142, 48 h, R. oryzae type I NRRL13142, 48 h, read-out: MFC) of 3.12 µg/mL (≈ 8.36 µM), an MIC (NRRL13142, 48 h, R. oryzae type I NRRL13142, 48 h, read-out: MIC) of 3.12 µg/mL (≈ 8.36 µM) and an MFC (NRRL13440, 24 h, R. oryzae type 1 NRRL13440, 24 h, read-out: MFC) of 12.5 µg/mL (≈ 33.5 µM). For the same compound, the MIC (NRRL13440, 24 h, R. oryzae type 1 NRRL13440, 24 h, read-out: MIC) was 1.56 µg/mL (≈ 4.18 µM), the MFC (NRRL13440, 48 h, R. oryzae type 1 NRRL13440, 48 h, read-out: MFC) was 12.5 µg/mL (≈ 33.5 µM) and the MIC (NRRL13440, 48 h, R. oryzae type 1 NRRL13440, 48 h, read-out: MIC) was 1.56 µg/mL (≈ 4.18 µM). It also gave an MFC (NRRL13533, 24 h, R. oryzae type I NRRL13533, 24 h, read-out: MFC) of 6.25 µg/mL (≈ 16.7 µM), an MIC (NRRL13533, 24 h, R. oryzae type I NRRL13533, 24 h, read-out: MIC) of 1.56 µg/mL (≈ 4.18 µM) and an MFC (NRRL13533, 48 h, R. oryzae type I NRRL13533, 48 h, read-out: MFC) of 6.25 µg/mL (≈ 16.7 µM). The MIC (NRRL13533, 48 h, R. oryzae type I NRRL13533, 48 h, read-out: MIC) was 1.56 µg/mL (≈ 4.18 µM), the MFC (NRRL18148, 24 h, R. oryzae type II NRRL 18148, 24 h, read-out: MFC) was 0.78 µg/mL (≈ 2.09 µM) and the MIC (NRRL18148, 24 h, R. oryzae type II NRRL 18148, 24 h, read-out: MIC) was 0.78 µg/mL (≈ 2.09 µM). The MFC (NRRL18148, 48 h, R. oryzae type II NRRL 18148, 48 h, read-out: MFC) was 0.78 µg/mL (≈ 2.09 µM), the MIC (NRRL18148, 48 h, R. oryzae type II NRRL 18148, 48 h, read-out: MIC) was 0.78 µg/mL (≈ 2.09 µM) and the MFC (NRRL21251, 24 h, R. oryzae type I NRRL 21251, 24 h, read-out: MFC) was 6.25 µg/mL (≈ 16.7 µM). The MIC (NRRL21251, 24 h, R. oryzae type I NRRL 21251, 24 h, read-out: MIC) was 3.12 µg/mL (≈ 8.36 µM), the MFC (NRRL21251, 48 h, R. oryzae type I NRRL 21251, 48 h, read-out: MFC) was 6.25 µg/mL (≈ 16.7 µM) and the MIC (NRRL21251, 48 h, R. oryzae type I NRRL 21251, 48 h, read-out: MIC) was 6.25 µg/mL (≈ 16.7 µM). For the same compound, the MFC (NRRL21396, 24 h, R. oryzae type I NRRL21396, 24 h, read-out: MFC) was 12.5 µg/mL (≈ 33.5 µM), the MIC (NRRL21396, 24 h, R. oryzae type I NRRL21396, 24 h, read-out: MIC) was 12.5 µg/mL (≈ 33.5 µM) and the MFC (NRRL21396, 48 h, R. oryzae type I NRRL21396, 48 h, read-out: MFC) was 6.25 µg/mL (≈ 16.7 µM). The MIC (NRRL21396, 48 h, R. oryzae type I NRRL21396, 48 h, read-out: MIC) was 1.56 µg/mL (≈ 4.18 µM), the MFC [3] was 1.56 µg/mL (≈ 4.18 µM) and the MIC [3] was 1.56 µg/mL (≈ 4.18 µM). The MFC (NRRL21446, 24 h, R. oryzae type II NRRL 21446, 24 h, read-out: MFC) was 12.5 µg/mL (≈ 33.5 µM), the MIC (NRRL21446, 24 h, R. oryzae type II NRRL 21446, 24 h, read-out: MIC) was 6.25 µg/mL (≈ 16.7 µM) and the MFC (NRRL21446, 48 h, R. oryzae type II NRRL 21446, 48 h, read-out: MFC) was 6.25 µg/mL (≈ 16.7 µM). For the same compound, the MIC (NRRL21446, 48 h, R. oryzae type II NRRL 21446, 48 h, read-out: MIC) was 6.25 µg/mL (≈ 16.7 µM), the MFC (NRRL21447, 24 h, R. oryzae type II NRRL 21447, 24 h, read-out: MFC) was 12.5 µg/mL (≈ 33.5 µM) and the MIC (NRRL21447, 24 h, R. oryzae type II NRRL 21447, 24 h, read-out: MIC) was 6.25 µg/mL (≈ 16.7 µM). For the same compound, the MFC (NRRL21447, 48 h, R. oryzae type II NRRL 21447, 48 h, read-out: MFC) was 6.25 µg/mL (≈ 16.7 µM), the MIC (NRRL21447, 48 h, R. oryzae type II NRRL 21447, 48 h, read-out: MIC) was 6.25 µg/mL (≈ 16.7 µM) and the MFC (NRRL21477, 24 h, R. oryzae type II NRRL 21477, 24 h, read-out: MFC) was 1.56 µg/mL (≈ 4.18 µM). For the same compound, the MIC (NRRL21477, 24 h, R. oryzae type II NRRL 21477, 24 h, read-out: MIC) was 1.56 µg/mL (≈ 4.18 µM), the MFC (NRRL21477, 48 h, R. oryzae type II NRRL 21477, 48 h, read-out: MFC) was 1.56 µg/mL (≈ 4.18 µM) and the MIC (NRRL21477, 48 h, R. oryzae type II NRRL 21477, 48 h, read-out: MIC) was 1.56 µg/mL (≈ 4.18 µM). For the same compound, the MFC (NRRL21628, 24 h, R. oryzae type II NRRL 21628, 24 h, read-out: MFC) was 0.78 µg/mL (≈ 2.09 µM), the MIC (NRRL21628, 24 h, R. oryzae type II NRRL 21628, 24 h, read-out: MIC) was 0.78 µg/mL (≈ 2.09 µM) and the MFC (NRRL21628, 48 h, R. oryzae type II NRRL 21628, 48 h, read-out: MFC) was 0.78 µg/mL (≈ 2.09 µM). It also gave an MIC (NRRL21628, 48 h, R. oryzae type II NRRL 21628, 48 h, read-out: MIC) of 0.78 µg/mL (≈ 2.09 µM), an MFC (NRRL21789, 24 h, R. oryzae type II NRRL 21789, 24 h, read-out: MFC) of 0.39 µg/mL (≈ 1.04 µM) and an MIC (NRRL21789, 24 h, R. oryzae type II NRRL 21789, 24 h, read-out: MIC) of 0.39 µg/mL (≈ 1.04 µM). For the same compound, the MFC (NRRL21789, 48 h, R. oryzae type II NRRL 21789, 48 h, read-out: MFC) was 0.39 µg/mL (≈ 1.04 µM), the MIC (NRRL21789, 48 h, R. oryzae type II NRRL 21789, 48 h, read-out: MIC) was 0.39 µg/mL (≈ 1.04 µM) and the MIC90 (24 h) was 12.5 µg/mL (≈ 33.5 µM). The MIC90 (48 h) was 6.25 µg/mL (≈ 16.7 µM).
